Active and inactive are the calls of the source. The calls are words filed in the database; no cut-off is given here.
Assays:
[1] = target: T1, Phosphotyrosine protein phosphatase (Mycobacterium tuberculosis, UniProt A0A045ISB3); assay: Inhibition of Mycobacterium tuberculosis H37Rv ptpB expressed in Escherichia coli BL21 (DH3) cells using 6,8-difluoromethylumbelliferyl phosphate as substrate incubated for 30 mins by fluorescence based assay
T1 sequence (A0A045ISB3 whole entry): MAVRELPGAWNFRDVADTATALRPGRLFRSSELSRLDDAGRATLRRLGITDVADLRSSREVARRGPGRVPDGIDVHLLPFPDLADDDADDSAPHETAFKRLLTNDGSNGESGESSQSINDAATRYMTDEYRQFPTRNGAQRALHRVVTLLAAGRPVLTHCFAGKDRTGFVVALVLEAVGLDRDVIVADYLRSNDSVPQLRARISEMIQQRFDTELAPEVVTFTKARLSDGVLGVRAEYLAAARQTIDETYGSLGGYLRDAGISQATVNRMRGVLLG

[2] = target: T1, Phosphotyrosine protein phosphatase; assay: Non-competitive inhibition of Mycobacterium tuberculosis H37Rv ptpB expressed in Escherichia coli BL21 (DH3) cells using p-nitrophenyl phosphate as substrate incubated for 30 mins by Lineweaver-Burk blot analysis
Candida albicans = assay: Antifungal activity against Candida albicans; type: functional, organism-based

**Q.** How did the IC50 [1] turn out when CC1(C)CC[C@]2(C(=O)O)CC[C@]3(C)C(=CC[C@@H]4[C@@]5(C)CC[C@H](O)C(C)(C)[C@@H]5CC[C@]43C)[C@@H]2C1 [OLEANOLIC_ACID] was run?
**A.** 14 µM

**Q.** With CC[C@H](C)C[C@H](C)C[C@@H]1CO[C@@H](\C(C)=C/C(=C/C=C/CC(=O)O)C(=O)O)[C@H](C)C1 as the compound, how does the Ki [2] read?
**A.** 7 µM

**Q.** What about the Activity (Candida albicans) of the same compound?
**A.** inactive

**Q.** And the IC50 ([1]; read-out: IC50)?
**A.** 12 µM

**Q.** What does the source list for CC[C@H](C)C[C@H](C)C[C@H](CO)C[C@@H](C)/C=C(C)/C=C(C)/C=C/C=C/C(=O)N1CCCC(O)C1=O (some centres not stated)?
**A.** Ki [2]: 16 µM; Activity (Candida albicans): inactive; IC50 ([1]; read-out: IC50): 11 µM

**Q.** With CC[C@H](C)C[C@H](C)C[C@H](CO)C[C@@H](C)/C=C(C)/C=C(C)\C=C\C=C\C(=O)N1CCCC(O)C1=O (some centres not stated) as the compound, how does the Activity (Candida albicans) read?
**A.** inactive

**Q.** And the IC50 ([1]; read-out: IC50)?
**A.** > 50 µM

**Q.** With CC[C@H](COC(C)=O)C[C@H](C)C[C@H](C)C[C@@H](C)/C=C(C)/C=C(/C=C/C=C/C(=O)O)C(=O)O as the compound, how does the Ki [2] read?
**A.** 5.2 µM

**Q.** What about the Activity (Candida albicans) of the same compound?
**A.** inactive

**Q.** What about the IC50 ([1]; read-out: IC50) of the same compound?
**A.** 4 µM

**Q.** Which results are given for CC[C@H](C)C[C@H](C)C[C@@H]1CO[C@@H](/C(C)=C/C(=C\C=C\CC(=O)O)C(=O)O)[C@H](C)C1?
**A.** Ki [2]: 8.9 µM; Activity (Candida albicans): inactive; IC50 ([1]; read-out: IC50): 5.1 µM

**Q.** With C/C(=C\[C@H](C)C[C@@H](C)C[C@@H](C)C[C@@H](C)[C@@H](C)O)C(=O)NCCC(=O)O as the compound, how does the Activity (Candida albicans) read?
**A.** inactive

**Q.** And the IC50 ([1]; read-out: IC50)?
**A.** > 50 µM
